Here are results for eight compounds from ChEMBL document CHEMBL4002596, “Hydroxylated biphenyls as tyrosinase inhibitor: A spectrophotometric and electrochemical study” (Eur J Med Chem, 2017).

SMILES strings stand for the structures. Active and inactive are the calls of the source. The rule behind the calls is not given here.

Series [1] deals with T1, Mushroom tyrosinase (Agaricus bisporus) (UniProt O42713+Q00024+C7FF04+C7FF05). In words: Inhibition of immobilized mushroom tyrosinase diphenolase activity assessed as reduction in caffeic acid oxidation at 50 uM by amperometric tyrosinase biosensor method.
The target of series [2] is T1, Mushroom tyrosinase (Agaricus bisporus). In words: Inhibition of mushroom tyrosinase assessed as reduction in caffeic acid oxidation measured after 6 mins by UV-Vis spectrophotometric method.
Series [3] shares this target. In words: Inhibition of mushroom tyrosinase monophenolase activity assessed as reduction in lag time of enzymatic reaction at 50 uM using caffeic acid as substrate by amperometric tyrosinase biosensor method.
The next series concerns Lymphocyte. In words: Cytotoxicity against human lymphocytes. The format is cell-based.
Series [4] concerns the target T1, Mushroom tyrosinase (Agaricus bisporus). In words: Inhibition of mushroom tyrosinase diphenolase activity assessed as reduction in caffeic acid oxidation measured after 6 mins by UV-Vis spectrophotometric method.
The nature of series [5]: Aqueous solubility of the compound. The conditions noted are these: buffer. Type of series: physicochemical.

For the compound `COc1cc(C)c(-c2cc(O)c(OC)cc2C)cc1O`, the inhibition result in series [1] was “Active”.
As for `Oc1ccc2c(c1-c1c(O)ccc3c1OCO3)OCO2`, the inhibition result in series [2] and in series [3] was “Active” in each case. Also, the inhibition in series [1] was found to be 82%.
Turning to `Oc1ccccc1-c1ccccc1O`, the inhibition in series [2] is 10%; in series [1] it was 10 to 20%.
The like results for `Oc1cccc(O)c1-c1c(O)cccc1O` were, in that order, “Active” and “Active”.
On the same counts, the results for `COc1cc(O)cc(-c2cc(O)cc(OC)c2OC)c1OC` are “Active” and “Active”.
As for `C=CCc1cc(-c2ccc(O)c(CC=C)c2)ccc1O`, the inhibition result in series [2] and in series [1] was “Active” in each case. The compound also returned an IC50 with Lymphocyte of less than 100 µM.
With `Oc1ccc(-c2ccc(O)cc2)cc1`, the inhibition entry in series [2] and in series [1] was “Active” in each case.
As to `Oc1ccc(-c2ccc(O)c(O)c2)cc1O`, the inhibition in series [4] amounted to 60%. For the same compound, the inhibition entry in series [2] and in series [1] was “Active” in each case. Moreover, the solubility entry in series [5] is on record as “Soluble”.
